Results from patent publication US20210260102A1, “TUNABLE IMMUNE RESPONSIVE BIODEGRADABLE ARGININE-BASED POLY(ESTER AMIDE)S AND METHODS OF MAKING AND USING SAME” (Cornell University, priority 2018, published 2021).

Assays:
[1] = neutral pH; cited from earlier work
RAW 264.7 cells [2] = assay: NO production of macrophages (Griess reagent); assay type: cell-based, murine; settings: CAM (LPS+IFN-γ), 24 h
RAW 264.7 cells [3] = assay: Arginase activity assay of treated macrophages; settings: 2 mg/mL, 24 h
Description: 4×10^5 RAW 264.7 cells in each well were incubated in 400 μL DMEM media contains 10% FBS in 24 well plates for 24 h. […] For CAM or AAM group, treatments contained either 100 U/mL recombinant mouse interferon-γ (IFN-γ, 1.25×10^7 U/mg, Shenandoah Biotechnology, PA) plus 100 ng/mL lipopolysaccharide (LPS, Sigma-Aldrich) or 20 ng/mL recombinant mouse interleukin-4 (IL-4, Shenandoah Biotechnology, PA) respectively to induce different activation phenotype. Resting Macrophages, CAM and AAM incubated in DMEM contains 5% FBS without treatments were used as controls.
The arginase activity assay is tested colorimetrically. The cells were washed with PBS and lysed by 200 μL 0.2% Triton X-100 in 20 mM Tris-HCl, pH 7.5 containing 20 g pepstatin A, 20 μg aprotinin and 20 μg leupeptin as protease inhibitors. After the cell was lysed, 200 μL 10 mM MnCl2 was added and the enzyme was activated for 10 minutes at 55° C. 100 μL aliquot of the activated lysate was mixed with 100 μL 0.5 M Arg and incubated at 37° C. for 1 h. […] After being cooled to room temperature, the absorbance of 200 μL mixture solution at 540 nm was tested in 96 well plates. […] The NO production and the arginase activity in three replicate wells of each condition were tested and the mean value was calculated with standard deviations.

Molecule	water solubility [1] [mg/mL]	NO production of CAM (RAW 264.7 cells [2]; 1 mg/mL) [µM]	NO production of CAM (RAW 264.7 cells [2]; 2 mg/mL) [µM]	arginase activity of CAM (RAW 264.7 cells [3]) [U]
N-nitro-L-arginine [NOArg]	~0.87			
N=C(N)NCCC[C@H](N)C(=O)O [Arg, L-arginine]		42.5 ± 2.6	50.7 ± 1.1	17.9±0.7
